The values below come from patent publication US20170226518A1, “COMPOSITIONS AND METHODS FOR TREATING CANCER” (Autotelic LLC, priority 2016, published 2017).

In the oligonucleotide strings, read from the 5' end, every base follows the letter of its sugar. An asterisk marks phosphorothioate; unmarked linkages are phosphodiester. Other units and linkages are bracketed, terminal groups are in braces. A string of capitals states the bases alone. d = 2'-deoxy (DNA)

Series [1] relates to HUP-T3 pancreatic cancer cells. Kind of series: Cellular proliferation of HUP-T3 pancreatic cancer cells in vitro. In kind it is cell-based. The settings on record: 10 μM AP12009 as monotherapy. On the procedure: (§1) The aim of the study was to determine the effect of AP12009 (trabedersen) treatment in combination with 5-Fluorouracil (5-FU) on TGFβ2 secretion and on cellular proliferation of HUP-T3 pancreatic cancer cells and WiDr colon cancer cells in vitro.
(§2) 10 μM of AP12009 as monotherapy decreased cell proliferation (53% proliferation of untreated control) and TGFβ2 expression (42% of untreated control) in HUP-T3 cells.

Series [2] concerns TGFβ2. Kind of series: TGFβ2 secretion/expression in HUP-T3 pancreatic cancer cells. The note with it: 10 μM AP12009 as monotherapy. It is filed as cell-based. On the procedure: as §1, §2
The next series has as its system WiDr colon cancer cells. Kind of series: Cellular proliferation of WiDr colon cancer cells in vitro. It is filed as cell-based. The note with it: 10 μM AP12009.
Text: as §1

The subject of series [3] is TGFβ2. Description: TGFβ2 secretion in A-172 glioma cells. In kind it is cell-based. The settings on record: 7 days, treatment schedule 2*2/1*3 d. On the procedure:
A-172 glioma cells were treated with a combination of AP12009 (trabedersen) 0 to 10 μM) and different concentrations of TMZ (temozolomide) for 7 days (treatment schedule 2*2/1*3 d).
In summary there is no clear beneficial effect in combining AP12009 with TMZ in A-172 cells.

A short description of series [4]: Preclinical toxicology in Cynomolgus monkeys (LOAEL). It is filed as in vivo. As for the experimental part:
(§3) The clinical starting dose for the 7-days-on and 7-days-off schedule was based on the Lowest-Observed-Adverse-Effect-Level (LOAEL) devoid of severe toxicity in Cynomolgus monkeys as the most relevant species. This LOAEL of 4 mg/kg body weight (b.w.)/day is equivalent to approximately 1.3 mg/kg b.w./day or 48 mg/m^2/day on a body surface area basis in human adults. These numbers were rounded down and the safe starting dose was defined at 40 mg/m^2/day, equivalent to approximately 1 mg/kg b.w./day in humans. An alternative approach would have been based on the lowest lethal dose (LLD) of 300 mg/kg b.w. obtained in the acute single dose toxicity study in mice (in rats it was determined at 1000 mg/kg), at which 1 of 10 mice died (LLD10). According to the standard method, 10% of this dose (30 mg/kg) on a body surface area basis would then be defined as the clinical starting dose resulting in 90 mg/m^2/day. In the end, the lower of the two alternatives was chosen as starting dose.

Series [5] is described as follows: Acute single dose toxicity study in mice. In kind it is in vivo. The settings on record: 1 of 10 mice died (LLD10). On the procedure: as §3
Series [6] can be described thus: Acute single dose toxicity in rats. It is filed as in vivo. As for the experimental part:
as §3

For another series, the system named is pancreatic cancer. Description: Phase I/II study P-001: PFS and OS in pancreatic cancer patients. It is filed as in vivo, human. The settings on record: for OS: pancreatic cancer; for OS (overall survival) / PFS (progression free survival): second line pancreatic cancer patients, 4 days on and 10 days off. As for the experimental part:
(§4) At screening, up to 10 “measurable lesions” (i.e. lesions that could be accurately measured in at least 1 dimension with a longest diameter of 2 cm) representative of all involved organs were identified as “target lesions” for tumor response assessment and were measured and documented. All other lesions were defined and recorded as “non-target lesions”. Tumor response was determined by the local investigator every 8 weeks after start of the first trabedersen cycle during follow-up visits, irrespective of whether the patient was still on treatment or off treatment. The tumor assessment was based on Response Evaluation Criteria in Solid Tumors (RECIST 1.0) criteria. The categories of overall tumor response are as follows: (1) Complete response (CR): disappearance of all target and non-target lesions and normalization of tumor marker level; (2) Partial response (PR): at least 30% decrease in the sum of the longest diameter (LD) of target lesions (baseline sum LD as reference) and/or persistence of one or more non-target lesions and/or maintenance of tumor marker level above normal limits; (3) Stable disease (SD): less than 30% decrease or less than 20% increase in sum LD target lesions (smallest sum LD since treatment start as reference) and/or persistence of one or more non-target lesions and/or maintenance of tumor marker level above normal limits; (4) Progressive disease (PD) At least 20% increase in sum LD target lesions (smallest sum LD since treatment start as reference) and/or unequivocal progression of existing nontarget lesions and/or appearance of one or more new lesions; and (5) Unknown.
(§5) Progression-free survival (PFS) was defined as the time from Day 1 until tumor progression or death from any cause. The date of progression was either the date of the image showing progression or the date of treatment termination in case one of the reasons for treatment termination was tumor progression (referring to clinical progression as assessed by the Investigator), whichever occurred first.
Overall survival (OS) was defined as the time from Day 1 until death from any cause. All patients were followed for survival during the follow-up assessments every 8 weeks. The survival status was documented at the Final Visit (Day 29) and during the 8-weekly post-treatment follow-up assessments, and was continued to be collected after study closure until database lock or until the patient was lost to follow-up.
There were […] line patients and 11 third line and beyond on the 4 days on and 10 days off regimen. The PFS/OS (progression free survival/overall survival ratio) of these second line patients in months were: 1.87/5.60 (N=6), 1.87/9.93 (N=11) and 2.72/11.80 (N=5) at increasing mean dose of 140 mg/m^2/day, 167 mg/m^2/day, and 196 mg/m^2/day, respectively. The OS of 9.93 and 11.80 are higher than the highest reported in the 65 trials reported in the literature during 1997-2015 (range=2.50-9.20/median=5.50). The corresponding PFS values were in line with reported literature (range=0.00-7.65/median=2.43). […] Trabedersen itself was not having an impact on the tumor (FIG. 1).

The next series has as its system melanoma. Description: Phase I/II study P-001: PFS and OS in melanoma patients. It is filed as in vivo, human. As for the experimental part: as §4, §5
Overall survival (OS) was defined as the time from Day 1 until death from any cause. All patients were followed for survival during the follow-up assessments every 8 weeks. […]
The primary objective was to determine the maximum tolerated dose (MTD) and the dose-limiting toxicity (DLTs) of two cycles of trabedersen administered intravenously (i.v.) for 7 days (7 days on and 7 days off) or for 4 days every other week (4 days on and 10 days off). The secondary objectives included assessment of the potential antitumor activity of trabedersen administered i.v. at weekly intervals and for four days every other week, as assessed by survival. […]

Setting [7] is: mean dose 167 mg/m^2/day (N=11).

Turning to “trabedersen: TGFβ2 specific phosphorothioate antisense oligodeoxynucleotide with the sequence 5′-CGGCATGTCTATTTTGTA-3′ (SEQ ID No: 1) (antisense dC*dG*dG*dC*dA*dT*dG*dT*dC*dT*dA*dT*dT*dT*dT*dG*dT*dA)”, the “cell proliferation (% proliferation of untreated control)” value in series [1] was determined as 53%. Further, the “TGFβ2 expression (% of untreated control)” value in the series on TGFβ2 [2] is listed as 42%. Besides, the “cell proliferation (% of untreated control)” value in the series with WiDr colon cancer cells was 76%. Moreover, the “effect on TGFβ2 secretion” value with TGFβ2 [3] is “strongly reduced TGFβ2”. For the same substance, in series [4], the “Lowest-Observed-Adverse-Effect-Level (LOAEL) devoid of severe toxicity” value is 4 mg/kg body weight (b.w.)/day. Besides, the “lowest lethal dose (LLD)” value is 300 mg/kg b.w in series [5] and 1000 mg/kg in [6]. Moreover, the “overall survival (OS) rate versus dose” value with pancreatic cancer (pancreatic cancer patients, trabedersen as second line treatment (FIG. 1)) is on record as “dose dependent increase”. Further, the OS worked out at 14.7 mos with pancreatic cancer (4/10 cohort treated with subsequent chemotherapies); 2.93 mos with pancreatic cancer (4/10 cohort without subsequent chemotherapies); 2.80 mos in the series with pancreatic cancer (chemotherapy on 2nd line followed with trabedersen 4/10 regimen as third line (N=9)); 9.93 mos with pancreatic cancer (trabedersen first on 2nd line followed with subsequent therapies (N=11)); 13.70 mos with melanoma (trabedersen followed by subsequent chemotherapy (N=9)); 5.5 mos in the series with melanoma (without subsequent chemotherapy (N=7)). Besides, the “OS (overall survival)” value stood at 5.60 months in the series on pancreatic cancer (mean dose 140 mg/m^2/day (N=6)), 9.93 months with pancreatic cancer (setting [7]) and 11.80 months in the series with pancreatic cancer (mean dose 196 mg/m^2/day (N=5)). The “PFS (progression free survival)” value is 1.87 months in the series on pancreatic cancer (mean dose 140 mg/m^2/day (N=6)), 1.87 months with pancreatic cancer (setting [7]) and 2.72 months in the series on pancreatic cancer (mean dose 196 mg/m^2/day (N=5)). Moreover, the “Median progression free survival (PFS)” value with melanoma (15 patients) is reported as 1.77 mos. In the series on melanoma (all doses, 19 patients), the “median OS” value worked out at 11.4 mos.
